# Results taken from ChEMBL document CHEMBL5608212, “N-acylbenzimidazoles as selective Acylators of the catalytic cystein of the coronavirus 3CL protease” (Eur J Med Chem, 2024).
# Several values for one entry are separate records, joined by “and”; a condition that tells them apart may be missing. Identical values can stand only once. Activity calls are given as the source filed them. The calls are words filed in the database; no cut-off is given here.
# Experiments:
# [1] = target: T1, Replicase polyprotein 1ab (Severe acute respiratory syndrome coronavirus 2, UniProt P0DTD1); test: Inhibition of SARS-CoV-2 3CLpro using Dabcyl-KTSAVLQSGFRKM-Glu(Edans) as substrate preincubated for 1 hrs in presence of 2 mM GSH followed by substrate addition and measured after 30 mins by FRET assay
# [2] = target: Replicase polyprotein 1ab (Severe acute respiratory syndrome coronavirus 2) (UniProt P0DTD1); test: Inhibition of SARS-CoV-2 3CLpro using Dabcyl-KTSAVLQSGFRKM-Glu(Edans) as substrate at 100 uM preincubated for 1 hrs in presence of 2 mM GSH followed by substrate addition and measured after 30 mins by FRET assay relative to control; details: time 1.5 hrs
# [3] = Inhibition of C-terminal 6-His tagged recombinant SARS-CoV 3CLpro (Ser1 to Gln306 residues) extracted from Escherichia coli using Dabcyl-KTSAVLQSGFRKM-Glu(Edans) as substrate preincubated 1 hr in presence of 2 mM GSH followed by substrate addition and measured after 30 mins by FRET assay; design: species or system Severe acute respiratory syndrome-related coronavirus
# [4] = Inhibition of human cathepsin 1 using QXL520/HiLyteFlour 488 as substrate preincubated for 60 mins and measured after 30 mins by fluorescence based assay
# [5] = Inhibition of MERS-CoV 3CLpro using Dabcyl-KTSAVLQSGFRKM-Glu(Edans) as substrate preincubated 1 hr in presence of 2 mM GSH followed by substrate addition and measured after 30 mins by FRET assay; design: species or system Middle East respiratory syndrome-related coronavirus
# [6] = target: Replicase polyprotein 1ab (Human coronavirus 229E, UniProt P0C6X1); test: Inhibition of hCoV-229E 3CLpro using Dabcyl-KTSAVLQSGFRKM-Glu(Edans) as substrate preincubated 1 hr in presence of 2 mM GSH followed by substrate addition and measured after 30 mins by FRET assay
# Chain of Replicase polyprotein 1ab (Human coronavirus 229E, UniProt P0C6X1) (P0C6X1 2966-3267 limits assumed): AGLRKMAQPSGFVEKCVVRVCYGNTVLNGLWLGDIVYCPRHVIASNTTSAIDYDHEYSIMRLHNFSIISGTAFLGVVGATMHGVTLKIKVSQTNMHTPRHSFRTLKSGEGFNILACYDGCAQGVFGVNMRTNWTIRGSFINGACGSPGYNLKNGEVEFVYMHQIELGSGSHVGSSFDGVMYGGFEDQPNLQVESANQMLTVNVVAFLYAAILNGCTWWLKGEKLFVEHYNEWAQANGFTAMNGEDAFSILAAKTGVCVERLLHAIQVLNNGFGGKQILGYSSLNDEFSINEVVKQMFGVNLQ
# Human coronavirus 229E = test: Antiviral activity against HCoV-229E expressing renilla luciferase reporter gene infected in human Huh-7 cells pre-infected […] for 1 hr followed by compound addition and measured after 6 hrs by luciferase based assay; format: functional, organism-based
# [7] = target: T2, Calpain-1 catalytic subunit (Homo sapiens, UniProt P07384); test: Inhibition of human calpain 1 using (DABCYL)-TPLKSPPPSPR-(EDANS) as substrate incubated for 30 mins in presence of calcium ions and GSH and measured after 30 mins by fluorescence based assay
# T2 sequence (P07384 whole entry): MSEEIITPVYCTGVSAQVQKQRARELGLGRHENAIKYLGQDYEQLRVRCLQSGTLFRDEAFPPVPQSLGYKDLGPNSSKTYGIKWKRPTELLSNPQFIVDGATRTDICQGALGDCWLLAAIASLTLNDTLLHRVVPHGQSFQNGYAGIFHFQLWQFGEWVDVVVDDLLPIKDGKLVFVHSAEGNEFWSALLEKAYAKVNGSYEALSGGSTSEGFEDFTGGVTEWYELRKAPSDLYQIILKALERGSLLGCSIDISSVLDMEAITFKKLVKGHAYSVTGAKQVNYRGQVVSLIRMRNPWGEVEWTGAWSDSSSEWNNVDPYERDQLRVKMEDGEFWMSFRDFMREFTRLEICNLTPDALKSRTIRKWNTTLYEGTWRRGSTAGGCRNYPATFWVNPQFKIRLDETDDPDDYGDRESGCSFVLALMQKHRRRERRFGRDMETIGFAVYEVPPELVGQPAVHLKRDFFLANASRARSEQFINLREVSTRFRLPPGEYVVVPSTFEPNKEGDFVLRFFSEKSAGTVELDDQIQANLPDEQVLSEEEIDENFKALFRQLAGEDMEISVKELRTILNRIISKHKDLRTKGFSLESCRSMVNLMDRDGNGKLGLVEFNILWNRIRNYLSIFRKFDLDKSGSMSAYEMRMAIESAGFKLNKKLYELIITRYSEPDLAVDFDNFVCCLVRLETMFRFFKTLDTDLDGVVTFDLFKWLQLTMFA
# [8] = target: T1, Replicase polyprotein 1ab; test: Inhibition of SARS-CoV-2 3CLpro using Dabcyl-KTSAVLQSGFRKM-Glu(Edans) as substrate preincubated for 30 mins followed by substrate addition and measured after 30 mins by FRET assay
# [9] = target: T1, Replicase polyprotein 1ab; test: Inhibition of SARS-CoV-2 3CLpro using Dabcyl-KTSAVLQSGFRKM-Glu(Edans) as substrate preincubated for 60 mins in absence of GSH followed by substrate addition and measured after 30 mins by FRET assay
# [10] = target: Replicase polyprotein 1ab (Severe acute respiratory syndrome coronavirus 2) (UniProt P0DTD1); test: Binding affinity to SARS-CoV-2 3CLpro assessed as change in melting temperature at 40 uM measured after 30 mins by SYPRO Orange staining based thermal shift assay
# [11] = target: T1, Replicase polyprotein 1ab; test: Inhibition of SARS-CoV-2 3CLpro using Dabcyl-KTSAVLQSGFRKM-Glu(Edans) as substrate preincubated for 60 mins in presence of GSH followed by substrate addition and measured after 30 mins by FRET assay
# [12] = target: Replicase polyprotein 1ab (Severe acute respiratory syndrome coronavirus 2) (UniProt P0DTD1); test: Binding affinity to 2H,15N-labelled SARS-CoV-2 3CLpro substrate binding pocket assessed as chemical shift perturbations at interface of domains I and II at 500 uM by 2D 1H,15N-HSQC NMR analysis
# [13] = target: Replicase polyprotein 1ab (Severe acute respiratory syndrome coronavirus 2) (UniProt P0DTD1); test: Reversible inhibition of SARS-CoV-2 3CLpro using Dabcyl-KTSAVLQSGFRKM-Glu(Edans) as substrate at 10 times IC50 preincubated for 1 hr followed by 100-fold dilution to 0.1 times IC50 with substrate solution by jump dilution assay
# SARS-CoV-2 = test: microbe, parasite or virus in culture; details: Severe acute respiratory syndrome coronavirus 2, Vero
# [14] = GSH reactivity in HEPES buffer at pH 7.4 assessed as half life at 1 uM; format: ADME; details: glutathione (GSH) in HEPES buffer
Compound,IC50 ([1]; read-out: IC50),pIC50 [1],further results
CCSc1nc2ccccc2n1C(=O)c1ccc(C)cc1,3760 nM,–,–
CSc1nc2ccccc2n1C(=O)c1cccc(C)c1,2100 nM,–,–
CSc1nc2ccccc2n1C(=O)c1ccc(C(C)(C)C)cc1,> 100000 nM,< 4,–
COc1ccc(C(=O)n2c(SC)nc3ccccc32)cc1OC,4000 nM,–,–
CSc1nc2ccccc2n1C(=O)c1ccccc1,2500 nM,–,–
Cc1ccc(C(=O)n2ccc3ccccc32)cc1,> 100000 nM,< 4,–
CSc1nc2ccccc2n1C(=O)c1ccc(C)c(C)c1,1000 nM,–,–
COc1cc2nc(SC)n(C(=O)c3ccc(C)cc3)c2cc1OC,6800 nM,–,–
CSc1nc2ccccc2n1C(=O)c1ccc2c(c1)OCCO2,1000 nM,–,–
CSc1nc2ccccc2n1C(=O)c1ccsc1,2400 nM,–,–
Cc1ccc(C(=O)n2c(C)nc3ccccc32)cc1,3430 nM,–,–
CSc1nc2ccccc2n1C(=O)c1cccc(C(F)(F)F)c1,33700 nM,–,–
CSc1nc2cc(C#N)ccc2n1C(=O)c1ccc(C)c(F)c1,890 nM,–,–
Cc1ccc(C(=O)n2ncc3ccccc32)cc1,> 100000 nM,< 4,–
CSc1nc2ccccc2n1C(=O)c1ccncc1,> 100000 nM,< 4,–
CSc1nc2cc(F)ccc2n1C(=O)c1ccc(C)cc1,270 nM,–,–
CSc1nc2ccccc2n1C(=O)Cc1ccccc1,> 100000 nM,< 4,–
CSc1nc2ccccc2n1S(=O)(=O)c1ccc(C)cc1,> 100000 nM,< 4,–
CSc1nc2ccccc2n1C(=O)c1ccc(C)c(Cl)c1,150 nM,–,–
Cc1ccc(C(=O)n2c(CC#N)nc3ccccc32)cc1,–,–,inhibition [2]: 68%

Compound,IC50 ([1]; read-out: IC50),pIC50 [1],further results
CSc1nc2cc(Cl)ccc2n1C(=O)c1ccc(C)cc1,550 nM,–,–
Cc1ccc(C(=O)n2c(S)nc3ccccc32)cc1,> 100000 nM,< 4,–
CSc1nc2ccc(Cl)cc2n1C(=O)c1ccc(C)cc1,890 nM,–,IC50 ([1]; read-out: pIC50 (converted)): 269 nM
Cc1ccc(C(=O)n2c(C(F)(F)F)nc3ccccc32)cc1,17000 nM,–,–
Cc1ccc(C(=O)n2c(C)nc3cc4c(cc32)OCCO4)cc1,7500 nM,–,–
Cc1ccc(C(=O)n2c(C#N)nc3ccccc32)cc1,> 100000 nM,< 4,–
COc1cc(C(=O)n2c(SC)nc3ccccc32)ccc1C,660 nM,–,–
C=CCSc1nc2ccccc2n1C(=O)c1ccc(C)cc1,5440 nM,–,–
CC(C)C[C@H](NC(=O)OCc1ccccc1)C(=O)N[C@@H](CC1CCNC1=O)C(O)S(=O)(=O)O (stereo partly drawn),–,–,IC50 [3]: 50 nM; pIC50 [3]: 7.33; IC50 [4]: 1 nM; IC50 [5]: 340 nM; pIC50 [5]: 6.47
CCc1ccc(C(=O)n2c(SC)nc3ccccc32)cc1,1800 nM,–,–
CSc1nc2ccccc2n1Cc1ccc(C)cc1,> 100000 nM,< 4,–
CSc1nc2ccccc2n1C(C)=O,> 100000 nM,< 4,–
CSc1nc2cc3c(cc2n1C(=O)c1ccc(C)c(F)c1)OCCO3,270 nM,–,–
CSc1nc2ccccc2n1C(=O)c1ccc(Cl)cc1,1100 nM,–,–
CSc1nc2ccccc2n1C(=O)c1ccc(F)cc1,3800 nM,–,–
CSc1nc2ccccc2n1C(=O)Oc1ccccc1,> 100000 nM,< 4,–
COc1nc2ccccc2n1C(=O)c1ccc(C)cc1,> 100000 nM,< 4,–
Cc1ccc(C(=O)n2cnc3ccccc32)cc1,6700 nM and 6660 nM,–,–
Cc1ccc(C(=O)n2c(Cl)nc3ccccc32)cc1,–,–,inhibition [2]: 61%
Cc1ccc(C(=O)n2c(-c3ccccc3)nc3ccccc32)cc1,> 100000 nM,< 4,–

Compound,IC50 ([1]; read-out: IC50),pIC50 [1],further results
CSc1nc2ccc(F)cc2n1C(=O)c1ccc(C)c(F)c1,260 nM,–,–
CSc1nc2ccccc2n1C(=O)c1ccc(C)c(F)c1,90 nM,–,IC50 [6]: 350 nM; IC50 [3]: 340 nM; pIC50 [3]: 6.47; IC50 [4]: > 100000 nM; IC50 [5]: 1300 nM; pIC50 [5]: 5.89; EC50 (Human coronavirus 229E): 35600 nM; IC50 [7]: > 100000 nM
CSc1nc2cc(F)ccc2n1C(=O)c1ccc(C)c(F)c1,100 nM,–,–
CSc1nc2cc(C)c(C)cc2n1C(=O)c1ccc(C)cc1,–,–,inhibition [2]: 68%
Cc1ccc(C(=O)n2nnc3ccccc32)cc1,> 100000 nM,< 4,–
CSc1nc2ccc(F)cc2n1C(=O)c1ccc(C)cc1,200 nM,–,–
COc1ccc(C(=O)n2c(SC)nc3ccccc32)cc1,3000 nM,–,–
CSc1nc2ccccc2n1C(=O)c1ccccc1C(F)(F)F,> 100000 nM,< 4,–
CSc1nc2cc3c(cc2n1C(=O)c1ccc(C)cc1)OCCO3,140 nM,–,IC50 [8]: 140 nM; IC50 ([9]; read-out: IC50): 380 nM; ΔTm [10]: 1.47 °C; IC50 ([11]; read-out: IC50): 390 nM; IC50 [6]: 190 nM; IC50 [3]: 1700 nM; pIC50 [3]: 5.77; IC50 [4]: > 100000 nM; Activity [12]: Active; IC50 [5]: 2500 nM; pIC50 [5]: 5.6; EC50 (Human coronavirus 229E): 7300 nM; IC50 [7]: > 100000 nM
CSc1nc2ccccc2n1C(=O)C1CC1,–,–,inhibition [2]: 61%
Cc1ccc(C(=O)n2c(N)nc3ccccc32)cc1,> 100000 nM,< 4,–
CSc1nc2ccc(C#N)cc2n1C(=O)c1ccc(C)c(F)c1,6300 nM,–,–
CSc1nc2ccccc2n1C(=O)c1ccc(C)cc1,390 nM,–,ΔTm [10]: 4.2 °C; IC50 [6]: 1900 nM; IC50 [3]: 1600 nM; pIC50 [3]: 5.81; IC50 [4]: > 100000 nM; IC50 [5]: 5000 nM; pIC50 [5]: 5.3; IC50 [7]: > 100000 nM
Cc1ccc(C(=O)n2c(C)nc3ccccc32)cc1F,150 nM,–,IC50 [6]: 2600 nM; IC50 [3]: 210 nM; pIC50 [3]: 6.67; IC50 [4]: > 100000 nM; IC50 [5]: 2800 nM; pIC50 [5]: 5.56; EC50 (Human coronavirus 229E): 25400 nM; IC50 [7]: > 100000 nM
CCc1nc2ccccc2n1C(=O)c1ccc(C)cc1,6550 nM,–,–
CSc1nc2ccccc2n1C(=O)NCc1ccc(C)cc1,> 100000 nM,< 4,–
CSc1nc2cc3c(cc2n1C(=O)c1ccc(C)cc1)OCO3,70 nM,–,IC50 ([9]; read-out: pIC50 (converted)): 85.1 nM; IC50 ([11]; read-out: pIC50 (converted)): 120 nM; IC50 [6]: 750 nM; inhibition [13]: Active; IC50 [3]: 150 nM; pIC50 [3]: 6.82; IC50 [4]: > 100000 nM; EC50 (SARS-CoV-2): 3100 nM; half-life at 1 µM [14]: 16 min; IC50 [5]: 990 nM; pIC50 [5]: 6.01; EC50 (Human coronavirus 229E): 4800 nM; IC50 [7]: > 100000 nM
CSc1nc2cc3c(cc2n1C(=O)c1ccc(C)c(F)c1)OCO3,70 nM,–,IC50 [6]: 320 nM; pIC50 [3]: 6.49; IC50 [5]: 2900 nM; pIC50 [5]: 5.53; EC50 (Human coronavirus 229E): 29200 nM
CSc1nc2ccccc2n1C(=O)c1ccccc1C,> 100000 nM,< 4,–
CSc1nc2ccccc2n1C(=O)c1ccc(C(F)(F)F)cc1,2720 nM,–,–
